Reference: patent US10710978B2, “STK4 inhibitors for treatment of hematologic malignancies” (Dana-Farber Cancer Institute, Inc., priority 2015, dated 2020)
Like-named read-outs stand apart in the source and are kept apart here.

Legend:
Experiment in all cases: KiNativ assay
Type in all cases: binding
IKKb = IKKb (Homo sapiens (Human), UniProt O14920); settings: H929 live cell
Method: (§1) Biochemical IC50s of the compounds of the present disclosure against various kinases were measured in a KiNativ assay. Compounds were screened in duplicate at 10 μM in H929 live cell. IC50 was measured via Mass spectroscopy (MS).

IRAK1 = IRAK1 (Homo sapiens (Human), UniProt P51617); settings: H929 live cell
Method: as §1

DGKH = DGKH (Homo sapiens (Human), UniProt Q86XP1); settings: H929 live cell
Method: as §1

JNK1, JNK2, JNK3 = settings: H929 live cell; for % inhibition: 10 μM, range class
Method: as §1

CK1g2 = CK1g2 (Homo sapiens (Human), UniProt P78368); settings: H929 live cell
Method: as §1

eEF2K = eEF2K (Homo sapiens (Human), UniProt O00418); settings: H929 live cell
Sequence of eEF2K (O00418 whole entry): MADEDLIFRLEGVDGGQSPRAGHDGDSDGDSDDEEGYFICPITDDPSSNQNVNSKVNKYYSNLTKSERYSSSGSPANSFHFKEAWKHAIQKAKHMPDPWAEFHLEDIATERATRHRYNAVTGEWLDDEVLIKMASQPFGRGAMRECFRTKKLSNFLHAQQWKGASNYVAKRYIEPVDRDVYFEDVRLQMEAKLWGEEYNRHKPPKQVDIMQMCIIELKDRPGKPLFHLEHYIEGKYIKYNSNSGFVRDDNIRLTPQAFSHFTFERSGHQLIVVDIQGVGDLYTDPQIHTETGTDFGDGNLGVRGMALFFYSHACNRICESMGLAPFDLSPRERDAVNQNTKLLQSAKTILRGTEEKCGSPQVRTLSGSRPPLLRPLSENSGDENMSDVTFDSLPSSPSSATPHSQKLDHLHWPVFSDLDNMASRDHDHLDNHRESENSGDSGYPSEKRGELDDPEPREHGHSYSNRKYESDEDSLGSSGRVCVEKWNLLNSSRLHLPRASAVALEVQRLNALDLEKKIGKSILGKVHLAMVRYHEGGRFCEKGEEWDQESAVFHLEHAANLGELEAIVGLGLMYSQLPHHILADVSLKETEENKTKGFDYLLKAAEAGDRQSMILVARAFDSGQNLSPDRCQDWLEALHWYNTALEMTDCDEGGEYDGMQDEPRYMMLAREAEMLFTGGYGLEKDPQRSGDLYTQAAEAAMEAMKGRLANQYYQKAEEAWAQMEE
Method: as §1

CK1g3 = CK1g3 (Homo sapiens (Human), UniProt Q9Y6M4); settings: H929 live cell
Sequence of CK1g3 (Q9Y6M4 whole entry): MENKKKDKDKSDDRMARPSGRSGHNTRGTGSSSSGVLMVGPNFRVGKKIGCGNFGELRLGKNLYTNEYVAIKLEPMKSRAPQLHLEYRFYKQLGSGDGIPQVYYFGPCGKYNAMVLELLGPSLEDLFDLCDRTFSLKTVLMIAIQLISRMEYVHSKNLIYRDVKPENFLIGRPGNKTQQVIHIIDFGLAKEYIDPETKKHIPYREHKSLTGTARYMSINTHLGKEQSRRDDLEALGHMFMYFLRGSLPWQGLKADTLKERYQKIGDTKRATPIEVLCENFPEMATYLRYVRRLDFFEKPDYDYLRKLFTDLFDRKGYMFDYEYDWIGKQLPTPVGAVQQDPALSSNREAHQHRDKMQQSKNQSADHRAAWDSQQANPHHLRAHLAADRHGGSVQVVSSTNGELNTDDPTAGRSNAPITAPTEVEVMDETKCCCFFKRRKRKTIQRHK
Method: as §1

PIK3CG = PIK3CG (Homo sapiens (Human), UniProt P48736); settings: H929 live cell
Sequence of PIK3CG (P48736 whole entry): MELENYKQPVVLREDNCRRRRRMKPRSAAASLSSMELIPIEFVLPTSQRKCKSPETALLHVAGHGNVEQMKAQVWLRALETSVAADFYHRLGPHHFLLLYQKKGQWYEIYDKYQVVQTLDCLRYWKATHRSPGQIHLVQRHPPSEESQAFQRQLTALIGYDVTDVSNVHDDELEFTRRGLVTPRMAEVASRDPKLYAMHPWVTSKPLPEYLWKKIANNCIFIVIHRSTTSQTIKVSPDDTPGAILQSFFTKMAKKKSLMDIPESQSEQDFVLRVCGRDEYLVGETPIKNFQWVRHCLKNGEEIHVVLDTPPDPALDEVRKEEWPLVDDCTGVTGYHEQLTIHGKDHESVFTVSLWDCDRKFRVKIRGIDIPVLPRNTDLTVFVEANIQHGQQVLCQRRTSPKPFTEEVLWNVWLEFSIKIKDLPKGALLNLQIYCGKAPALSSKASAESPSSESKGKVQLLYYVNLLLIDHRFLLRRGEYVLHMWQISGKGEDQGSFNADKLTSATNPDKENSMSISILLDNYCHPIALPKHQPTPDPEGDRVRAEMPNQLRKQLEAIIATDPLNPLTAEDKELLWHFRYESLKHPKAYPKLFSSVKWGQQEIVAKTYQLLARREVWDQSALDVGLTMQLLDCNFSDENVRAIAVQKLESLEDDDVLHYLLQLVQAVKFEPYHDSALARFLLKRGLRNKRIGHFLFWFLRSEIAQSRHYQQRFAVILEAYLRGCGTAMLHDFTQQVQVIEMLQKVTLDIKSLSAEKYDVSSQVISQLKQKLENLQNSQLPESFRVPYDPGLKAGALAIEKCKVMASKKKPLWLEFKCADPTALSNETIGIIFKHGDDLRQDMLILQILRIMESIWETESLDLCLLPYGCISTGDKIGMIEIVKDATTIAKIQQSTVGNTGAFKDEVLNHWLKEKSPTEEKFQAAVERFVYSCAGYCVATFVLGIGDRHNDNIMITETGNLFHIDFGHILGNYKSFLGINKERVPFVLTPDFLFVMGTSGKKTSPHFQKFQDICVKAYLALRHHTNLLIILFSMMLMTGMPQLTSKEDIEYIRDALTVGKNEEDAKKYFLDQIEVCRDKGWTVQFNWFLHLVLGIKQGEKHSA
Method: as §1

MAP3K4 = MAP3K4 (Homo sapiens (Human), UniProt Q9Y6R4); settings: H929 live cell
Method: as §1

[1] = system: ZC1/HGK, ZC2/TNIK, ZC3/MINK; settings: H929 live cell; for % inhibition: 10 μM, range class
Method: as §1

MAP2K1 = MAP2K1 (Homo sapiens (Human), UniProt Q02750); settings: H929 live cell
Method: as §1

PAN3 = PAN3 (Homo sapiens (Human), UniProt Q58A45); settings: H929 live cell
Method: as §1

PKD3 = PKD3 (Homo sapiens (Human), UniProt O94806); settings: H929 live cell
Method: as §1

MARK2, MARK3 = settings: H929 live cell; for % inhibition: 10 μM, range class
Method: as §1

OSR1 = OSR1 (Homo sapiens (Human), UniProt O95747); settings: H929 live cell
Method: as §1

SMG1 = SMG1 (Homo sapiens (Human), UniProt Q96Q15); settings: H929 live cell
Method: as §1

GSK3B = GSK3B (Homo sapiens (Human), UniProt P49841); settings: H929 live cell
Method: as §1

PHKg2 = PHKg2 (Homo sapiens (Human), UniProt P15735); settings: H929 live cell
Method: as §1

IRAK4 = IRAK4 (Homo sapiens (Human), UniProt Q9NWZ3); settings: H929 live cell
Method: as §1

NEK9 = NEK9 (Homo sapiens (Human), UniProt Q8TD19); settings: H929 live cell
Method: as §1

MARK1, MARK2 = settings: H929 live cell; for % inhibition: 10 μM, range class
Method: as §1

MARK3 = MARK3 (Homo sapiens (Human), UniProt P27448); settings: H929 live cell
Method: as §1

IKKe, TBK1 = settings: H929 live cell; for % inhibition: 10 μM, range class
Method: as §1

PKCz = PKCz (Homo sapiens (Human), UniProt Q05513); settings: H929 live cell
Sequence of PKCz (Q05513 whole entry): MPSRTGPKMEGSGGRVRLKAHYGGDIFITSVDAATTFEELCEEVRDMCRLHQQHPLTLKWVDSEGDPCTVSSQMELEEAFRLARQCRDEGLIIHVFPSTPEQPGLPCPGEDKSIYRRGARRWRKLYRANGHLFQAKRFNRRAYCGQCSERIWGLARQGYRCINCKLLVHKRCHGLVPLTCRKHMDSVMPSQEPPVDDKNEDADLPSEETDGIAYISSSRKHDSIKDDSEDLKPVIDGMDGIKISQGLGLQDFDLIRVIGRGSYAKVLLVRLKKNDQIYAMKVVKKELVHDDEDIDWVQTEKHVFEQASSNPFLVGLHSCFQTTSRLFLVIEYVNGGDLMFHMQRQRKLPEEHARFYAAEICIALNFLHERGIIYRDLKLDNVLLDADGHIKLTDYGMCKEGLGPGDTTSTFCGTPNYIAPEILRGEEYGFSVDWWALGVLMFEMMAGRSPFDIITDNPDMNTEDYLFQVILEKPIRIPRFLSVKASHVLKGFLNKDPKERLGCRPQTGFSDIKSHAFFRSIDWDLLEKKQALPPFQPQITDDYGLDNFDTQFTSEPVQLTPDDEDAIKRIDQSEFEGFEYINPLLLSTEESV
Method: as §1

MAP2K7 = MAP2K7 (Homo sapiens (Human), UniProt O14733); settings: H929 live cell
Method: as §1

PIP5K3 = PIP5K3 (Homo sapiens (Human), UniProt Q9Y2I7); settings: H929 live cell
Sequence of PIP5K3 (Q9Y2I7 whole entry): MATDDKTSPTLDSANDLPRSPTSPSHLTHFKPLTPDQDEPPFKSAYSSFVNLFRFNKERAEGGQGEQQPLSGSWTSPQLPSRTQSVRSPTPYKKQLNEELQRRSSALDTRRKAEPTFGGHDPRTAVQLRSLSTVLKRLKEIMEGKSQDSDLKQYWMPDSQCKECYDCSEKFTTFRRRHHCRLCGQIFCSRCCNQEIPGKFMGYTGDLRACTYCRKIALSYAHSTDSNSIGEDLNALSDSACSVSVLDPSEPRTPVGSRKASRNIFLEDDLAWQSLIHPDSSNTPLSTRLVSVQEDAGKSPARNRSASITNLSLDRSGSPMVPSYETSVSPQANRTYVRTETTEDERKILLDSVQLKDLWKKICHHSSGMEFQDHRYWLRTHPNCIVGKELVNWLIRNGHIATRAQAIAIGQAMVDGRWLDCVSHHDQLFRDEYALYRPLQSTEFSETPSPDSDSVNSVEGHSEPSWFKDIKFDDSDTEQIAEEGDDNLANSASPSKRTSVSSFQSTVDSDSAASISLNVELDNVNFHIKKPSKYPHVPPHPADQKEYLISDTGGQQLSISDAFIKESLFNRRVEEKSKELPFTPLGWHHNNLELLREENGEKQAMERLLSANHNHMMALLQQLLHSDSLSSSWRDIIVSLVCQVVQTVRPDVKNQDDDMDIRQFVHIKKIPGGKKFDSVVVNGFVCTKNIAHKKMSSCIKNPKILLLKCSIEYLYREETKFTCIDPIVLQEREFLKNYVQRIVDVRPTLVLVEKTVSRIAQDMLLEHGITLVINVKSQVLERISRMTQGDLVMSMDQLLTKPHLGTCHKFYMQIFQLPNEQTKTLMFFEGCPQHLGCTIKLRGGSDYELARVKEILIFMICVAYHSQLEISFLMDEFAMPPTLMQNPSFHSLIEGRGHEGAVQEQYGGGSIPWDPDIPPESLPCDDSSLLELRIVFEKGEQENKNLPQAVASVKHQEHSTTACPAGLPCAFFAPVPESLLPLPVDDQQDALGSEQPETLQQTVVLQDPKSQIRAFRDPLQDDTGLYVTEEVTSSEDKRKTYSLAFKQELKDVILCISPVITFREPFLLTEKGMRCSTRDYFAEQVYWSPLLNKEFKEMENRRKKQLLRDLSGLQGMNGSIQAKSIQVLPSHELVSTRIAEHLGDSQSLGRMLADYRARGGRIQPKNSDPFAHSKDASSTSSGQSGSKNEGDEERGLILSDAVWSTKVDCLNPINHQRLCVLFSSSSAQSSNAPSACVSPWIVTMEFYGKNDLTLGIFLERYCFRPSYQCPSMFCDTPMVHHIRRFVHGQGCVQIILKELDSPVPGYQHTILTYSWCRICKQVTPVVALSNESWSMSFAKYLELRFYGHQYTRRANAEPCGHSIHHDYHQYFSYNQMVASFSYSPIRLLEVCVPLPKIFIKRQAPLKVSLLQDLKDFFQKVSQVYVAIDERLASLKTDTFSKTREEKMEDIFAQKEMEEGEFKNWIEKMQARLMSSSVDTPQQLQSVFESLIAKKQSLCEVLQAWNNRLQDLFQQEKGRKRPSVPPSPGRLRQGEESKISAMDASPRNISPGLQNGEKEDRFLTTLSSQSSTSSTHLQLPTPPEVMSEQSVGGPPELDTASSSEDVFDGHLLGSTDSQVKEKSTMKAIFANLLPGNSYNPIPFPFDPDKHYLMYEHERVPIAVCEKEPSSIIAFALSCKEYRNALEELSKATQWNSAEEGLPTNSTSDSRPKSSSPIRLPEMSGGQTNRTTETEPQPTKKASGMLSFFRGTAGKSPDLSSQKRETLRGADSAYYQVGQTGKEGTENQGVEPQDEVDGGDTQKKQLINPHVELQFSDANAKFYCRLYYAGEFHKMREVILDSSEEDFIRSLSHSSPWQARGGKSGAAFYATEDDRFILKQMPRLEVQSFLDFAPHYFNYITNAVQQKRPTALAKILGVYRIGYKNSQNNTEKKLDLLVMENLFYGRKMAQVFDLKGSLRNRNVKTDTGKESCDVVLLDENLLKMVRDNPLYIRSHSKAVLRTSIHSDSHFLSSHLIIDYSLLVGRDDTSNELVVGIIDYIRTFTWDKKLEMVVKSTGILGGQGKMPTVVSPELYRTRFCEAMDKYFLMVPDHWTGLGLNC
Method: as §1

MAP3K1 = MAP3K1 (Homo sapiens (Human), UniProt Q13233); settings: H929 live cell
Method: as §1

CHK1 = CHK1 (Homo sapiens (Human), UniProt O14757); settings: H929 live cell
Method: as §1

MLK3 = MLK3 (Homo sapiens (Human), UniProt Q16584); settings: H929 live cell
Method: as §1

CLK2 = CLK2 (Homo sapiens (Human), UniProt P49760); settings: H929 live cell
Method: as §1

Wnk1, Wnk2, Wnk3 = settings: H929 live cell; for % inhibition: 10 μM, range class
Method: as §1

BARK1 = BARK1 (Homo sapiens (Human), UniProt P25098); settings: H929 live cell
Method: as §1

MSK2 domain1 = MSK2 domain1 (Homo sapiens (Human), UniProt O75676); settings: H929 live cell
Method: as §1

MST1, MST2 = settings: H929 live cell; for % inhibition: 10 μM, range class
Method: as §1

[2] = range class, read-out: % inhibition

## Nc1ncc(-c2ccc(NS(=O)(=O)C3CC3)cc2F)cc1-c1ccc2c(c1)CCNC2=O [Compound I-51, N-(4-(6-amino-5-(1-oxo-1,2,3,4-tetrahydroisoquinolin-6-yl)pyridin-3-yl)-3-fluorophenyl) cyclopropanesulfonamide]
IKKb; [2]
  inhibition at 10 µM: 0%
IKKb; read-out: inhibition (10 μM)
  inhibition at 10 µM: -19.5%
IRAK1; [2]
  inhibition at 10 µM: 50 to 75%
IRAK1; read-out: inhibition (10 μM)
  inhibition at 10 µM: 65%
DGKH; [2]
  inhibition at 10 µM: 0%
DGKH; read-out: inhibition (10 μM)
  inhibition at 10 µM: 2.7%
JNK1, JNK2, JNK3
  % inhibition: 0.0%
  inhibition (10 μM): 29.3%
CK1g2; [2]
  inhibition at 10 µM: 75 to 90%
CK1g2; read-out: inhibition (10 μM)
  inhibition at 10 µM: 84.1%
eEF2K; [2]
  inhibition at 10 µM: 0%
eEF2K; read-out: inhibition (10 μM)
  inhibition at 10 µM: 7.7%
CK1g3; [2]
  inhibition at 10 µM: 75 to 90%
CK1g3; read-out: inhibition (10 μM)
  inhibition at 10 µM: 88.2%
PIK3CG; [2]
  inhibition at 10 µM: 0%
PIK3CG; read-out: inhibition (10 μM)
  inhibition at 10 µM: -146%
MAP3K4; [2]
  inhibition at 10 µM: 0%
MAP3K4; read-out: inhibition (10 μM)
  inhibition at 10 µM: 24.2%
[1]
  % inhibition: >90%
  inhibition (10 μM): 97.2%
MAP2K1; [2]
  inhibition at 10 µM: 0%
MAP2K1; read-out: inhibition (10 μM)
  inhibition at 10 µM: -26.2%
PAN3; [2]
  inhibition at 10 µM: 0%
PAN3; read-out: inhibition (10 μM)
  inhibition at 10 µM: -39.1%
PKD3; [2]
  inhibition at 10 µM: 50 to 75%
PKD3; read-out: inhibition (10 μM)
  inhibition at 10 µM: 74.8%
MARK2, MARK3
  % inhibition: 0.0%
  inhibition (10 μM): 14.9%
OSR1; [2]
  inhibition at 10 µM: 0%
OSR1; read-out: inhibition (10 μM)
  inhibition at 10 µM: 8.8%
SMG1; [2]
  inhibition at 10 µM: 50 to 75%
SMG1; read-out: inhibition (10 μM)
  inhibition at 10 µM: 55.8%
GSK3B; [2]
  inhibition at 10 µM: > 90%
GSK3B; read-out: inhibition (10 μM)
  inhibition at 10 µM: 90.2%
PHKg2; [2]
  inhibition at 10 µM: 0%
PHKg2; read-out: inhibition (10 μM)
  inhibition at 10 µM: -45.4%
IRAK4; [2]
  inhibition at 10 µM: 0%
IRAK4; read-out: inhibition (10 μM)
  inhibition at 10 µM: 16.4%
NEK9; [2]
  inhibition at 10 µM: 0%
NEK9; read-out: inhibition (10 μM)
  inhibition at 10 µM: -20.8%
MARK1, MARK2
  % inhibition: 0.0%
  inhibition (10 μM): 9.3%
MARK3; [2]
  inhibition at 10 µM: 0%
MARK3; read-out: inhibition (10 μM)
  inhibition at 10 µM: 4.8%
IKKe, TBK1
  % inhibition: 0.0%
  inhibition (10 μM): 26.7%
PKCz; [2]
  inhibition at 10 µM: 0%
PKCz; read-out: inhibition (10 μM)
  inhibition at 10 µM: 2.1%
MAP2K7; [2]
  inhibition at 10 µM: 0%
MAP2K7; read-out: inhibition (10 μM)
  inhibition at 10 µM: 12.2%
PIP5K3; [2]
  inhibition at 10 µM: 75 to 90%
PIP5K3; read-out: inhibition (10 μM)
  inhibition at 10 µM: 84.7%
MAP3K1; [2]
  inhibition at 10 µM: > 90%
MAP3K1; read-out: inhibition (10 μM)
  inhibition at 10 µM: 95.8%
CHK1; [2]
  inhibition at 10 µM: 0%
CHK1; read-out: inhibition (10 μM)
  inhibition at 10 µM: -20.1%
MLK3; [2]
  inhibition at 10 µM: 35 to 40%
MLK3; read-out: inhibition (10 μM)
  inhibition at 10 µM: 42.3%
CLK2; [2]
  inhibition at 10 µM: 50 to 75%
CLK2; read-out:
  inhibition at 10 µM: 65.3%
Wnk1, Wnk2, Wnk3
  % inhibition: 0.0%
  inhibition (10 μM): 0.2%
BARK1; [2]
  inhibition at 10 µM: 0%
BARK1; read-out: inhibition (10 μM)
  inhibition at 10 µM: -5.1%
MSK2 domain1; [2]
  inhibition at 10 µM: 0%
MSK2 domain1; read-out: inhibition (10 μM)
  inhibition at 10 µM: -8%
MST1, MST2
  % inhibition: >90%
  inhibition (10 μM): 98.4%

## Nc1ncc(-c2ccc(NS(=O)(=O)C3CC3)cc2OC2CCCCC2)cc1-c1ccc2c(c1)CCNC2=O [Compound I-65, N-(4-(6-amino-5-(1-oxo-1,2,3,4-tetrahydroisoquinolin-6-yl)pyridin-3-yl)-3-(cyclohexyloxy)phenyl) cyclopropanesulfonamide]
IKKb; [2]
  inhibition at 10 µM: 0%
IKKb; read-out: inhibition (10 μM)
  inhibition at 10 µM: -36%
IRAK1; [2]
  inhibition at 10 µM: 0%
IRAK1; read-out: inhibition (10 μM)
  inhibition at 10 µM: 27.8%
DGKH; [2]
  inhibition at 10 µM: 0%
DGKH; read-out: inhibition (10 μM)
  inhibition at 10 µM: 7.3%
JNK1, JNK2, JNK3
  % inhibition: 0.0%
  inhibition (10 μM): 6.4%
CK1g2; [2]
  inhibition at 10 µM: 50 to 75%
CK1g2; read-out: inhibition (10 μM)
  inhibition at 10 µM: 74.5%
eEF2K; [2]
  inhibition at 10 µM: 0%
eEF2K; read-out: inhibition (10 μM)
  inhibition at 10 µM: -21.7%
CK1g3; [2]
  inhibition at 10 µM: 75 to 90%
CK1g3; read-out: inhibition (10 μM)
  inhibition at 10 µM: 87.2%
PIK3CG; [2]
  inhibition at 10 µM: 0%
PIK3CG; read-out: inhibition (10 μM)
  inhibition at 10 µM: -64%
MAP3K4; [2]
  inhibition at 10 µM: 0%
MAP3K4; read-out: inhibition (10 μM)
  inhibition at 10 µM: 10.3%
[1]
  % inhibition: >90%
  inhibition (10 μM): 96.6%
MAP2K1; [2]
  inhibition at 10 µM: 0%
MAP2K1; read-out: inhibition (10 μM)
  inhibition at 10 µM: 21.2%
PAN3; [2]
  inhibition at 10 µM: 0%
PAN3; read-out: inhibition (10 μM)
  inhibition at 10 µM: 5.8%
PKD3; [2]
  inhibition at 10 µM: 0%
PKD3; read-out: inhibition (10 μM)
  inhibition at 10 µM: -24.2%
MARK2, MARK3
  % inhibition: 0.0%
  inhibition (10 μM): −17.2%
OSR1; [2]
  inhibition at 10 µM: 0%
OSR1; read-out: inhibition (10 μM)
  inhibition at 10 µM: 26.8%
SMG1; [2]
  inhibition at 10 µM: 50 to 75%
SMG1; read-out: inhibition (10 μM)
  inhibition at 10 µM: 68.8%
GSK3B; [2]
  inhibition at 10 µM: > 90%
GSK3B; read-out: inhibition (10 μM)
  inhibition at 10 µM: 90%
PHKg2; [2]
  inhibition at 10 µM: 0%
PHKg2; read-out: inhibition (10 μM)
  inhibition at 10 µM: -64%
IRAK4; [2]
  inhibition at 10 µM: 0%
IRAK4; read-out: inhibition (10 μM)
  inhibition at 10 µM: 32.9%
NEK9; [2]
  inhibition at 10 µM: 0%
NEK9; read-out: inhibition (10 μM)
  inhibition at 10 µM: -27.8%
MARK1, MARK2
  % inhibition: 0.0%
  inhibition (10 μM): −29.4%
MARK3; [2]
  inhibition at 10 µM: 0%
MARK3; read-out: inhibition (10 μM)
  inhibition at 10 µM: -22.7%
IKKe, TBK1
  % inhibition: 75-90%
  inhibition (10 μM): 81.8%
PKCz; [2]
  inhibition at 10 µM: 0%
PKCz; read-out: inhibition (10 μM)
  inhibition at 10 µM: -12.4%
MAP2K7; [2]
  inhibition at 10 µM: 0%
MAP2K7; read-out: inhibition (10 μM)
  inhibition at 10 µM: 3.3%
PIP5K3; [2]
  inhibition at 10 µM: > 90%
PIP5K3; read-out: inhibition (10 μM)
  inhibition at 10 µM: 91.7%
MAP3K1; [2]
  inhibition at 10 µM: 35 to 40%
MAP3K1; read-out: inhibition (10 μM)
  inhibition at 10 µM: 48.5%
CHK1; [2]
  inhibition at 10 µM: 0%
CHK1; read-out: inhibition (10 μM)
  inhibition at 10 µM: -16%
MLK3; [2]
  inhibition at 10 µM: 75 to 90%
MLK3; read-out: inhibition (10 μM)
  inhibition at 10 µM: 82.7%
CLK2; [2]
  inhibition at 10 µM: 50 to 75%
CLK2; read-out:
  inhibition at 10 µM: 69.4%
Wnk1, Wnk2, Wnk3
  % inhibition: 0.0%
  inhibition (10 μM): −8.3%
BARK1; [2]
  inhibition at 10 µM: 0%
BARK1; read-out: inhibition (10 μM)
  inhibition at 10 µM: 3.9%
MSK2 domain1; [2]
  inhibition at 10 µM: 0%
MSK2 domain1; read-out: inhibition (10 μM)
  inhibition at 10 µM: -83.6%
MST1, MST2
  % inhibition: >90%
  inhibition (10 μM): 98.7%
